Our source for the water uptake values is US12577223B2, “Processes for preparing 2-(4-chlorophenyl)-n-((2-(2,6-dioxopiperidin-3-yl)-1-oxoisoindolin-5-yl)methyl)-2,2-difluoroacetamide” (Celgene Corporation, priority 2019, dated 2026).

SMILES strings stand for the structures.

The series is described as follows: dynamic vapor sorption (DVS) analysis. The class given is physicochemical. The note with it: relative humidity increased from about 0% to about 90% RH. From the text: FIG. 5 provides a DVS isotherm plot of polymorph Form C of 2-(4-chlorophenyl)-N-((2-(2,6-dioxopiperidin-3-yl)-1-oxoisoindolin-5-yl)methyl)-2,2-difluoroacetamide.
In certain embodiments, polymorph Form C is characterized by dynamic vapor sorption analysis. A representative dynamic vapor sorption (DVS) isotherm plot is shown in
FIG. 5. […] In certain embodiments, polymorph Form C comprises less than 0.1% water as determined in a coulometric Karl Fischer (KF) titrator equipped with an oven sample processor set at 225° C.

On to `O=C1CCC(N2Cc3cc(CNC(=O)C(F)(F)c4ccc(Cl)cc4)ccc3C2=O)C(=O)N1` (stereo not shown) [polymorph Form C, 2-(4-chlorophenyl)-N-((2-(2,6-dioxopiperidin-3-yl)-1-oxoisoindolin-5-yl)methyl)-2,2-difluoroacetamide], for which the water uptake result is “about 0.6 % w/w”.
